{"source": "the NIST ThermoML archive (doi:10.1021/acs.jced.8b00070)", "settings": "101.3 kPa, Liquid, Vibrating tube method", "note": "Numbers after ± are expanded uncertainties."}
{"smiles": "O", "note": "[water]", "values": [{"measurement": "mass density", "setting": "323.15 K", "value": "988 ± 0.2", "unit": "kg/m3"}, {"measurement": "mass density", "setting": "328.15 K", "value": "985.7 ± 0.2", "unit": "kg/m3"}, {"measurement": "mass density", "setting": "333.15 K", "value": "983.2 ± 0.2", "unit": "kg/m3"}]}
